Source: patent publication US20140135310A1, “SULPHONAMIDE DERIVATIVES OF ALICYCLIC AMINES FOR THE TREATMENT OF CENTRAL NERVOUS SYSTEM DISEASES” (Adamed Sp. z o.o., priority 2011, published 2014)

Legend:
[1] = molecular target: D2 dopaminergic receptors (Homo sapiens, UniProt P14416); test: Cellular functional assay, D2 dopaminergic receptors; assay type: cell-based; conditions: for D2 ag [%]: agonism, percent of control specific agonist response (3 μM dopamine for control); for D2 ag [%] / D2 antag [%]: D2S (h), HEK-293 cells; for D2 antag [%]: antagonism, stimulus dopamine (30 nM); for Kb: apparent dissociation constant, modified Cheng Prusoff equation, read-out: D2 antag Kb
Protocol: (§1) The results are expressed as a percent of control specific agonist response ((measured specific response/control specific agonist response)×100) obtained in the presence of the test compounds.
(§2) The EC50 values (concentration producing a half-maximal specific response) and IC50 values (concentration causing a half-maximal inhibition of the control specific agonist response) were determined by non-linear regression analysis of the concentration-response curves generated with mean replicate values using Hill equation curve fitting (Y=D+[(A−D)/(1+(C/C50)nH)], where Y=specific response, D=minimum specific response, A=maximum specific response, C=compound concentration, and C50=EC50 or IC50, and nH=slope factor). This analysis was performed using a software developed at Cerep (Hill software) and validated by comparison with data generated by the commercial software SigmaPlot® 4.0 for Windows® (© 1997 by SPSS Inc.).
(§3) For the antagonists, the apparent dissociation constants (Kb) were calculated using the modified Cheng Prusoff equation (Kb=IC50/(1+(A/EC50A)), where A=concentration of reference agonist in the assay, and EC50A=EC50 value of the reference agonist).

[2] = molecular target: T1, 5-HT2C serotoninergic receptors (Homo sapiens, UniProt P28335); test: Cellular functional assay, 5-HT2C serotoninergic receptors; assay type: cell-based; conditions: for 5-HT2C ag [%]: agonist mode, percent of control specific agonist response; for 5-HT2C antag [%]: antagonist mode
T1 sequence (P28335 33-458): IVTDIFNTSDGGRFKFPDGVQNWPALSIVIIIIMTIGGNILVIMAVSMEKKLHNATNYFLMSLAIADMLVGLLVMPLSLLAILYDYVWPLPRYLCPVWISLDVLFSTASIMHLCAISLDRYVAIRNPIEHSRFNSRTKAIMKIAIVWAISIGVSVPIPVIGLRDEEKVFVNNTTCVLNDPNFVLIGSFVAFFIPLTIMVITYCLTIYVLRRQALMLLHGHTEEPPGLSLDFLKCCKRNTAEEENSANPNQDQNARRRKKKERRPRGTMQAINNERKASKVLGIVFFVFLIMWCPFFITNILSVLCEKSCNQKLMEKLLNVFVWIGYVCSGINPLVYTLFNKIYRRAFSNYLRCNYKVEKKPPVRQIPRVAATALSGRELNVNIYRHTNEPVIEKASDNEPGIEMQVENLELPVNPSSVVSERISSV
Protocol: as §1, §2, §3

[3] = molecular target: T2, 5-HT1A serotoninergic receptors (Homo sapiens, UniProt P08908); test: Cellular functional assay, 5-HT1A serotoninergic receptors; assay type: cell-based; conditions: for 5-HT1A ag [%]: agonist mode, percent of control specific agonist response
T2 sequence (P08908 1-422): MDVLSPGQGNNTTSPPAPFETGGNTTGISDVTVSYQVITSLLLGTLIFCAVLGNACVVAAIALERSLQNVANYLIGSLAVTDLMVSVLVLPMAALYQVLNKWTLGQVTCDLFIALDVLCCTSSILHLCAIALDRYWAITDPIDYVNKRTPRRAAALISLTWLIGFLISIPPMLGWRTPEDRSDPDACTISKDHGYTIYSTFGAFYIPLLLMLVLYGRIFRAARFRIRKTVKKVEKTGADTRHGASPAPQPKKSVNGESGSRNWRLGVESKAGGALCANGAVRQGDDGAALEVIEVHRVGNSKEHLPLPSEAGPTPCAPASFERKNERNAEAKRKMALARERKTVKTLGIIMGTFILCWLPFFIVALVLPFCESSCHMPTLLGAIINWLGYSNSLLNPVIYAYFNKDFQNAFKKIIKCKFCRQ
Protocol: as §1, §2, §3

[4] = molecular target: T3, D4 dopaminergic receptors (Homo sapiens, UniProt P21917); test: Cellular functional assay, D4 dopaminergic receptors; assay type: cell-based; conditions: D4.4 (h), CHO cells
T3 sequence (P21917 1-419): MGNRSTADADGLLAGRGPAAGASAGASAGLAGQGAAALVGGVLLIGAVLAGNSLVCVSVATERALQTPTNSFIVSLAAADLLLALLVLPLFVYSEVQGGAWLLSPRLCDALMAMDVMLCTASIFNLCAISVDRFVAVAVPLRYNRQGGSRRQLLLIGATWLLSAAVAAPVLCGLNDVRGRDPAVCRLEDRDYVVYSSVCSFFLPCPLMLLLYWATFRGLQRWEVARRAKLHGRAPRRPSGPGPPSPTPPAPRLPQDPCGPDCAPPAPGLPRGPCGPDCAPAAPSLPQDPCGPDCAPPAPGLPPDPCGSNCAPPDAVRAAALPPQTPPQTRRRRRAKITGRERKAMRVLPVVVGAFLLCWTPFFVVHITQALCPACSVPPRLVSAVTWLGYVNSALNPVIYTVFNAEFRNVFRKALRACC
Protocol: as §1, §2, §3

[5] = molecular target: D3 dopaminergic receptors (Homo sapiens, UniProt P35462); test: Cellular functional assay, D3 dopaminergic receptors; assay type: cell-based; conditions: for D3 ag [%]: agonism, percent of control specific agonist response (0.3 μM dopamine for control); for D3 ag [%] / D3 antag [%]: D3 (h), CHO cells; for D3 antag [%]: antagonism, stimulus dopamine (10 nM); for Kb: apparent dissociation constant, modified Cheng Prusoff equation, read-out: D3 antag Kb
Protocol: as §1, §2, §3

[6] = system: dizocilpine-induced locomotor hyperactivity; test: Dizocilpine (MK-801)-induced locomotor hyperactivity in mice; assay type: in vivo; conditions: reversal of dizocilpine (MK-801)-induced hyperlocomotion, male CD-1 mice, i.p., 30 minutes before the experiment
Protocol: Potential antipsychotic activity was tested for the representative compounds in mouse model of psychosis, involving the induction of locomotor hyperactivity by administering psychotomimetic substance—dizocilpine. The ability of a test compound to remove this effect is a measure of potential antipsychotic activity.
Male CD-1 mice were group-housed for 2-3 day period in polycarbonate Makrolon type 3 cages (dimensions 26.5×15×42 cm) in an environmentally controlled, experimental room (ambient temperature 22-20° C.; relative humidity 50-60%; 12:12 light:dark cycle, lights on at 8:00), in groups of 15. Standard laboratory food (Ssniff M-Z) and filtered water were freely available. On the day before experiments the equipment produced “white noise” was turned on for 30 minutes and mice were weighted exact to 1 g. Animals were assigned randomly to treatment groups. All the experiments were performed by two observers unaware of the treatment applied between 9:00 and 14:00 on separate groups of animals. Mice were used only once and were killed immediately after the experiment.
The locomotor activity was recorded with an Opto M3 multi-channel activity monitor (MuttiDevice Software v.1.3, Columbus Instruments). The mice were individually placed in plastic cages (22×12×13 cm) for 30 minutes habituation period, and then the crossings of each channel (ambulation) were counted during 1 h with data recording every 5 minutes. The cages were cleaned up with 70% ethanol after examining each mouse. Drugs were administered to 10 mice per treatment group. Test compounds were given 30 minutes before the experiment. Dizocilpine was administered 30 minutes before the test.
Test compounds were prepared as a suspension in 1% aqueous solution of Tween 80, and dizocilpine was dissolved in distilled water immediately before administration. An injection volume of 10 ml/kg was used and all compounds were administered intraperitoneally (i.p.).

Sequence of D3 dopaminergic receptors (P35462 whole entry): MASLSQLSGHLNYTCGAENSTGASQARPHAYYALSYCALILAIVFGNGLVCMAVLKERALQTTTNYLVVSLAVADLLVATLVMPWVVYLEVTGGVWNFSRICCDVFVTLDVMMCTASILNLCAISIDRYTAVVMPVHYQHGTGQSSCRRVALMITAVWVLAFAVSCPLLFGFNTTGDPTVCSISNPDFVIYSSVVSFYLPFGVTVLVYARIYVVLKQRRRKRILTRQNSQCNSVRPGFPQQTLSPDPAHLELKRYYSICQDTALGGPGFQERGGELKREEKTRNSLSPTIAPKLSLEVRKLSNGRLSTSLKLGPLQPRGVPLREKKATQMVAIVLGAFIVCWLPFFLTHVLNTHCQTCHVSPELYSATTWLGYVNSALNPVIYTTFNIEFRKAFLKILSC
Sequence of D2 dopaminergic receptors (P14416 whole entry): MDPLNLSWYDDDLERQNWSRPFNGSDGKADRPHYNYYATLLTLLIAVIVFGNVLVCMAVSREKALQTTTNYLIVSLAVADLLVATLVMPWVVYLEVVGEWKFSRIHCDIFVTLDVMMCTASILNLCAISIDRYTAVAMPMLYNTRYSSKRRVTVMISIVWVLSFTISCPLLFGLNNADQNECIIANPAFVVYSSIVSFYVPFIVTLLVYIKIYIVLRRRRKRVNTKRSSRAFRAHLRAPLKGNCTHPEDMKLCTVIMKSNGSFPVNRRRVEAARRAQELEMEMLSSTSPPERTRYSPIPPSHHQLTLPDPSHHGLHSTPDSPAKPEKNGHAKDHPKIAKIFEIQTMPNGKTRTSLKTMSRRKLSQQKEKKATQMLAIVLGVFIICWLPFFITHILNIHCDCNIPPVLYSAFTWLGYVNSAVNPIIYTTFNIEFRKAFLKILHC

Row | Compound | D2 ag [%] [1] | D2 antag [%] [1] | 5-HT2C ag [%] [2] | 5-HT2C antag [%] [2] | 5-HT1A ag [%] [3] | D4 ag [%] ([4]; agonism, percent of control specific agonist response (300 nM dopamine for control)) | D4 antag [%] ([4]; antagonism, stimulus dopamine (100 nM)) | 5-HT1A antag [%] ([3]; antagonist mode) | D3 ag [%] [5] | D3 antag [%] [5] | Kb [1] | MED* [mg/kg] (minimum effective dose) [6] | Kb [5]
1 | O=S(=O)(NCC1CN(CCOc2cccc3c2OCCO3)C1)c1ccc(Cl)c(Cl)c1 [Compound 183, 3,4-Dichloro-N-[[1-[2-(2,3-dihydro-1,4-benzodioxin-5-yloxy)ethyl]azetidin-3-yl]methyl]benzenesulphonamide] | 8% | 53% | 50% | 12% | 71% | – | – | – | – | – | – | – | –
2 | CC(C)(C)c1ccc(S(=O)(=O)NCC2CN(CCOc3cccc4c3OCCO4)C2)cc1 [Compound 181, 4-tert-Butyl-N-[[1-[2-(2,3-dihydro-1,4-benzodioxin-5-yloxy)ethyl]azetidin-3-yl]methyl]benzenesulphonamide] | – | – | 46% | 6% | 66% | – | – | – | – | – | – | – | –
3 | O=S(=O)(NC1CN(CCOc2cccc3c2OCCO3)C1)c1cccc2ccccc12 [Compound 94, N-[1-[2-(2,3-Dihydro-1,4-benzodioxan-8-yloxy)ethyl]azetidin-3-yl]-naphthalene-1-sulphonamide] | 45% | 99% | 92% | −57% | 41% | 60% | 9% | 90% | 51% | 38% | – | – | –
4 | O=S(=O)(NC1CCN(CCCc2noc3cc(F)ccc23)C1)c1ccc2ccccc2c1 (centres unmarked) [Compound 21, N-[1-[3-(6-Fluoro-1,2-benzoxazol-3-yl)propyl]pyrrolidin-3-yl]naphthalene-2-sulphonamide] | 6% | 98% | – | – | – | – | – | – | −8% | 83% | 1.6 nM | 10 mg/kg | 7.3 nM
5 | O=S(=O)(N[C@@H]1CCN(CCCc2noc3cc(F)ccc23)C1)c1cc2ccccc2s1 [Compound 196, N-[(3R)-1-[3-(6-Fluoro-1,2-benzoxazol-3-yl)propyl]pyrrolidin-3-yl]benzo-thiophene-2-sulphonamide] | 0% | 95% | – | – | – | – | – | – | −16% | 77% | 10 nM | 2.5 mg/kg | 71 nM
6 | Cc1c(S(=O)(=O)N[C@H]2CCN(CCCc3noc4cc(F)ccc34)C2)sc2ccc(F)cc12 [Compound 203, 5-Fluoro-N-[(3S)-1-[3-(6-fluoro-1,2-benzoxazol-3-yl)propyl]pyrrolidin-3-yl]-3-methyl-benzothiophene-2-sulphonamide] | 0% | 80% | 1% | – | – | – | – | – | 11% | 65% | – | – | –
7 | O=S(=O)(NC1CCN(CCCc2noc3cc(F)ccc23)C1)c1cc2ccccc2s1 (centres unmarked) [Compound 25, N-[1-[3-(6-Fluoro-1,2-benzoxazol-3-yl)propyl]pyrrolidin-3-yl]-benzothiophene-2-sulphonamide] | 3% | 89% | – | – | – | – | – | – | 0% | 82% | 2.3 nM | 5 mg/kg | 8 nM
